Consider 11 molecules from paper PMC11577759, “The structure of lipopeptides impacts their antiviral activity and mode of action against SARS-CoV-2 in vitro” (Applied and Environmental Microbiology, 2024).

For orientation: viability means a read-out of living cells in per cent, often relative to untreated cells. The low end stands for more harm to the cells, the high end for less harm to the cells.

Values after ≈ are worked out from the molar mass of the structure shown. “Also recorded” adds a separate entry of the source. Like-named read-outs stand apart in the source and are kept apart here. Positions of bridges follow the written chain, without caps; N, C: chain ends. Non-standard residues stand in square brackets, D forms with d. Residues, ends and D or L forms follow the SMILES beside them. *: point of attachment. d(aThr) = C[C@@H](O)[C@@H](N)C(=O)O; X2 = CCCCCCCCCCCC(O)CC(=O)*

One data set has as its system Vero E6 cells. As to the kind of experiment: Cytotoxicity, CyQUANT XTT cell viability assay. It is filed as cell-based, Chlorocebus sp. To be noted: for Cell viability: 100 µg/mL, Vero E6; for Cell viability / IC50 (half maximal inhibitory concentration, cytotoxicity): 72 h; for IC50 (half maximal inhibitory concentration, cytotoxicity): Vero E6 cells, XTT, mean (standard deviation), fengycin and caspofungin determined at higher concentrations in a subsequent experiment; for Cytotoxicity: concentrations up to 100 µg/mL, Vero E6, 72 h. On the procedure: (§1) Chlorocebus sp. kidney epithelial cells (Vero E6; ATCC VERO C1008) were cultured in Dulbecco’s Modified Eagle medium (DMEM) High Glucose w/ Stable Glutamine w/ Sodium Pyruvate (VWR, USA) supplemented with 2% (vol/vol) of decomplemented fetal bovine serum (FBS, Biowest, France) and 1% (vol/vol) Penicillin-Streptomycin (VWR, USA). The cells were grown at 37°C in a humidified 5% CO2 atmosphere. Cells were routinely passaged when they reached 100% confluence and were passaged until passage 15.
(§2) The cytotoxic activity of the lipopeptides was assessed using a CyQUANT XTT Cell Viability Assay (Thermo Fisher Scientific) according to the manufacturer’s instructions. […] The cells were then incubated for 72 h at 37°C. The kit was then used following the manufacturer’s instructions, and the plates were read at 450 nm and 660 nm using a Multiskan GO Microplate Spectrophotometer (Thermo Fisher Scientific). The percentage of viable cells was calculated as (AT450 − AT660 − AB450) / (AC450 − AC660) × 100%, where AT450, AT660, AB450, AC450, and AC660 represent the absorbance of the tested well at 450 nm, of the tested well at 660 nm, of the blank (only medium) at 450 nm, of the control cells at 450 nm, and of the control cells at 660 nm, respectively. One hundred percent viability corresponds to the viability of uninfected cells. DMSO concentrations ranging from 0.5% (vol/vol) to 0.001% (vol/vol) were used as a negative control for the assay. Every sample was tested in triplicate.

The test system of data set [1] is SARS-CoV-2. As to the kind of experiment: Replication / antiviral assay, viral RNA in supernatant by RT-qPCR. Type of data set: cell-based. As to conditions: for EC50 (half maximal effective concentration) / EC50: mean (standard deviation); for Viral RNA concentration per milliliter: surfactin 35, WLIP 20, caspofungin 100 µg/mL; for EC50: read-out: EC50 (half maximal effective concentration). A general note: Quantitative PCR measures a nucleic acid by following its amplification.

The subject of data set [2] is SARS-CoV-2. Set-up: method as in PMID 36868316. As to conditions: co-incubated with SARS-CoV-2; 12.5 µg/mL iturin A, 25 µg/mL mycosubtilin; Vero cells; cited from earlier work.
Data set [3] can be described thus: Cytotoxicity, CyQUANT XTT cell viability assay. Type of data set: cell-based, Chlorocebus sp. As to conditions: Chlorocebus sp. (African green monkey), Vero E6 cells, 72 h; for IC50 at 72 h: Vero E6 cells (kidney epithelial cells), XTT, mean (standard deviation), fengycin and caspofungin determined at higher concentrations in a subsequent experiment, read-out: IC50 (half maximal inhibitory concentration, cytotoxicity). As for the experimental part: as §1, §2
(In general: Formazan colour is commonly taken as a measure of viable cells.)

In data set [4] the test system is SARS-CoV-2. As to the kind of experiment: Binding inhibition: pre-treatment of SARS-CoV-2 and incubation on cells. Type of data set: cell-based. As to conditions: virus pre-treated, surfactin 35, WLIP 20, fengycin 50, caspofungin 100 µg/mL.
For data set [5], the system named is SARS-CoV-2. It is filed as cell-based. As to conditions: cells pre-treated, surfactin 35, WLIP 20, fengycin 50, caspofungin 100 µg/mL.
The subject of data set [6] is SARS-CoV-2. As to conditions: surfactin 35, WLIP 20, fengycin 50, caspofungin 100 µg/mL; 100% = untreated infected cells at 37°C.
Protocol: To determine the impact of lipopeptides on the fusion step, intracellular viral RNA was quantified after infection of cells with SARS-CoV-2 but before the budding step. […] The cells were pre-chilled for 15 min on ice. The cells were infected with SARS-CoV-2 (MOI of 10) in DMEM + 2% FBS and incubated for 2 h on ice with gentle agitation. The inoculum was removed, and the cells were gently washed three times with ice-cold DPBS. The positive control was inactivated to determine the basal viral RNA concentration after binding of the virus. The lipopeptides were added to room temperature DMEM + 2% (vol/vol) FBS and incubated at 37°C for 7 h. […] The cells were rinsed with DPBS, and the wells were dried. The samples were inactivated for 30 min at 70°C before quantification of the viral RNA by RT-qPCR. Every sample was tested in triplicate.
Another data set concerns Vero cells. Set-up: method as in earlier work. As to conditions: ref 38 (Shekunov et al.); cited from earlier work.
Setting [7] is: 100 µg/mL, 72 h pi, compared to untreated infected cells.
The mark [8] stands for this setting: SARS-CoV-2 MOI 0.01, Vero E6, viral RNA at 72 h pi by RT-qPCR.
The mark [9] stands for this setting: Severe acute respiratory syndrome coronavirus 2, Vero C1008, 72 h, […].

Consider Iturin A, for which, in the data set with Vero E6 cells, the Cell viability result is listed as “no cell viability was observed” and the “IC50 (half maximal inhibitory concentration, cytotoxicity)” value is on record as 4.9 (0.5) µg/mL. Also, the “Maximal RNA reduction at 100 µg/mL” value with SARS-CoV-2 [1] (setting [7]) is given as 3.9-log. The “EC50 (half maximal effective concentration)” value in the data set on SARS-CoV-2 [1] (setting [8]) was 18.2 (1.8) µg/mL. The “Viral titer and SARS-CoV-2 cytopathic effects” value with SARS-CoV-2 [2] was “could reduce the viral titer and SARS-CoV-2 cytopathic effects (CPEs)”.

On to `CC[C@H](C)C[C@H](C)CCCCCCCCC(=O)N[C@H]1C[C@@H](O)[C@@H](NCCN)NC(=O)[C@@H]2[C@@H](O)CCN2C(=O)[C@H]([C@H](O)CCN)NC(=O)[C@H]([C@H](O)[C@@H](O)c2ccc(O)cc2)NC(=O)[C@@H]2C[C@@H](O)CN2C(=O)[C@H]([C@@H](C)O)NC1=O` [Caspofungin, reference compound], for which, in data set [3], the IC50 at 72 h was 129 µg/mL (≈ 118 µM). Besides, the viability at 72 h in data set [3] (surfactin 35, WLIP 20, fengycin 50, caspofungin 100 µg/mL, Vero E6 (Fig. 5)) stood at 96.9%. For the same molecule, the Cytotoxicity result in the data set with Vero E6 cells is “did not cause any cytotoxicity; also recorded: without any apparent cytotoxicity”. In addition, the results for the “Maximal RNA reduction at 100 µg/mL” value in the data set on SARS-CoV-2 [1] and with SARS-CoV-2 [1] (listed as caspofungin) were 3.7-log and 3.7 log, respectively. For the same molecule, the “Viral RNA concentration per milliliter” value in the data set with SARS-CoV-2 [1] (24 h pi, serum diluted five times) was 7.9 × 10^2 RNA concentration per milliliter; in the data set on SARS-CoV-2 [1] (72 h pi), 1.8 × 10^4 RNA concentration per milliliter. The “Reduction of viral RNA concentration” value in the data set on SARS-CoV-2 [1] (72 h pi, surfactin 35, WLIP 20, fengycin 50, caspofungin 100 µg/mL, serum diluted five times, […]) is given as 2.1 log. In the data set with SARS-CoV-2 [1] (setting [9]), the EC50 worked out at 140 µg/mL (≈ 128 µM). For the same molecule, the “Reduction in viral RNA” value with SARS-CoV-2 [1] (surfactin 35, WLIP 20, fengycin 50, caspofungin 100 µg/mL, 72 h (Fig. 5)) is listed as 2.4 log. The “Binding percentage of SARS-CoV-2 to cells” value is “did not show any effect on the binding percentage” in the data set on SARS-CoV-2 [4] and 81% with SARS-CoV-2 [5]. Also, in the data set with SARS-CoV-2 [6], the Fusion percentage is on record as 51.4%.

Regarding Polymyxin B [reference compound], the “IC50 (half maximal inhibitory concentration, cytotoxicity)” value in the data set with Vero E6 cells was above 100.0 µg/mL. In the data set with Vero E6 cells, the Cytotoxicity entry is listed as “did not cause any cytotoxicity”. The “Maximal RNA reduction at 100 µg/mL” value is 0.3-log with SARS-CoV-2 [1] (setting [7]) and “no activity up to 100 µg/mL” in the data set with SARS-CoV-2 [1] (100 µg/mL, 72 h pi, compared to untreated infected cells, listed as polymyxin B). In the data set with SARS-CoV-2 [1] (setting [8]), the “EC50 (half maximal effective concentration)” value is above 100.0 µg/mL. Further, in the data set with Vero cells, the IC50 was 1.1 µg/mL.

Consider Mycosubtilin, for which, in the data set with Vero E6 cells, the Cell viability result is on record as “no cell viability was observed” and the “IC50 (half maximal inhibitory concentration, cytotoxicity)” value is listed as 1.8 (0.1) µg/mL. Besides, the “Maximal RNA reduction at 100 µg/mL” value in the data set with SARS-CoV-2 [1] (setting [7]) is 4.1-log. The “EC50 (half maximal effective concentration)” value in the data set on SARS-CoV-2 [1] (setting [8]) is recorded as 12.9 (2.0) µg/mL. Moreover, the “Viral titer and SARS-CoV-2 cytopathic effects” value with SARS-CoV-2 [2] is “could reduce the viral titer and SARS-CoV-2 cytopathic effects (CPEs)”.

As to `CCCCCCCCCCCC(O)CC(=O)N[C@@H](CC(C)C)C(=O)N[C@H](CCC(=O)O)C(=O)N[C@H]1C(=O)N[C@H](C(C)C)C(=O)N[C@@H](CC(C)C)C(=O)N[C@H](CO)C(=O)N[C@@H](CC(C)C)C(=O)N[C@@H](CC(C)C)C(=O)N[C@H](CO)C(=O)N[C@@H](C(C)C)C(=O)O[C@@H]1C` (stereo partly shown) [Orfamide B] (X2-L[dE][d(aThr)][dV]L[dS]LL[dS]V; ester 3-C), the “IC50 (half maximal inhibitory concentration, cytotoxicity)” value with Vero E6 cells was 14.6 (0.4) µg/mL. The “Maximal RNA reduction at 100 µg/mL” value in the data set with SARS-CoV-2 [1] (setting [7]) is 6.3-log; in the data set on SARS-CoV-2 [1] (100 µg/mL, 72 h pi, compared to untreated infected cells, listed as orfamide B), 6.3 log. Besides, in the data set with SARS-CoV-2 [1] (setting [8]), the “EC50 (half maximal effective concentration)” value is 12.8 (4.1) µg/mL.

Take `CCCCCCCCCC(=O)N[C@@H](Cc1c[nH]c2ccccc12)C(=O)N[C@H](CC(N)=O)C(=O)N[C@@H](CC(=O)O)C(=O)N[C@@H]1C(=O)NCC(=O)N[C@@H](CCCN)C(=O)N[C@@H](CC(=O)O)C(=O)N[C@H](C)C(=O)N[C@@H](CC(=O)O)C(=O)NCC(=O)N[C@H](CO)C(=O)N[C@@H]([C@H](C)CC(=O)O)C(=O)N[C@@H](CC(=O)c2ccccc2N)C(=O)O[C@@H]1C` [Daptomycin, reference compound]: the IC50 at 72 h in data set [3] is above 100 µg/mL. In the data set on Vero E6 cells, the Cytotoxicity entry is “did not cause any cytotoxicity”. For the same molecule, the figures for the “Maximal RNA reduction at 100 µg/mL” value in the data set on SARS-CoV-2 [1] and in the data set on SARS-CoV-2 [1] (listed as daptomycin) were 0.3-log and “no effect”, respectively. Besides, the EC50 in the data set with SARS-CoV-2 [1] (setting [9]) is above 100 µg/mL. Further, the IC50 with Vero cells was 0.7 µg/mL (≈ 0.432 µM).

For Lichenysin, the “IC50 (half maximal inhibitory concentration, cytotoxicity)” value with Vero E6 cells is recorded as 28.1 (1.4) µg/mL. Further, the “Maximal RNA reduction at 100 µg/mL” value in the data set with SARS-CoV-2 [1] (setting [7]) is listed as 6.3-log; in the data set on SARS-CoV-2 [1] (100 µg/mL, 72 h pi, compared to untreated infected cells, listed as lichenysin) it was 6.3 log. For the same molecule, in the data set with SARS-CoV-2 [1] (setting [8]), the “EC50 (half maximal effective concentration)” value is 25.9 (3.2) µg/mL.

Take “Colistin (polymyxin E) [reference compound]”: the “IC50 (half maximal inhibitory concentration, cytotoxicity)” value in the data set with Vero E6 cells is above 100.0 µg/mL. The Cytotoxicity entry in the data set on Vero E6 cells is on record as “did not cause any cytotoxicity”. Further, the “Maximal RNA reduction at 100 µg/mL” value in the data set with SARS-CoV-2 [1] (setting [7]) is on record as 0.2-log; in the data set on SARS-CoV-2 [1] (100 µg/mL, 72 h pi, compared to untreated infected cells, listed as colistin), “no activity up to 100 µg/mL”. The “EC50 (half maximal effective concentration)” value with SARS-CoV-2 [1] (setting [8]) is above 100.0 µg/mL.

Regarding Fusaricidin, the “IC50 (half maximal inhibitory concentration, cytotoxicity)” value with Vero E6 cells is 24.6 (1.1) µg/mL. The “Maximal RNA reduction at 100 µg/mL” value in the data set with SARS-CoV-2 [1] (setting [7]) was 3.3-log. For the same molecule, the “EC50 (half maximal effective concentration)” value in the data set with SARS-CoV-2 [1] (setting [8]) was 51.2 (13.6) µg/mL.

Consider Pumilacidin, for which the “IC50 (half maximal inhibitory concentration, cytotoxicity)” value with Vero E6 cells was 36.0 (3.5) µg/mL. In addition, the “Maximal RNA reduction at 100 µg/mL” value in the data set with SARS-CoV-2 [1] (setting [7]) is reported as 6.3-log; in the data set with SARS-CoV-2 [1] (100 µg/mL, 72 h pi, compared to untreated infected cells, listed as pumilacidin), 6.3 log. In addition, the “EC50 (half maximal effective concentration)” value with SARS-CoV-2 [1] (setting [8]) is recorded as 47.8 (0.4) µg/mL.

For the molecule `CCC(=O)CCCCC[C@@H]1NC(=O)[C@H]2CCCCN2C(=O)[C@H]([C@@H](C)CC)NC(=O)[C@H](Cc2cn(OC)c3ccccc23)NC1=O` [Apicidin], the IC50 at 72 h in data set [3] came to 0.7 µg/mL (≈ 1.12 µM). Besides, the “Maximal RNA reduction at 100 µg/mL” value in the data set on SARS-CoV-2 [1] (setting [7]) is 3.7-log. Moreover, the EC50 in the data set with SARS-CoV-2 [1] (Severe acute respiratory syndrome coronavirus 2, Vero C1008, SARS-CoV-2 MOI 0.01, Vero E6, viral RNA at 72 h pi by RT-qPCR) came out at 25.2 µg/mL (≈ 40.4 µM).
